The values that follow come from patent publication US5565336A, “Carboxy terminal IL-6 muteins” (University of North Carolina at Chapel Hill, priority 1994, dated 1996).

Assay [1] concerns IL-6 receptor. In words: binding competition assay / Scatchard analysis with 125I-IL-6 on human myeloma cell line U-266. Conditions: Kd wild-type IL-6 divided by Kd mutein; result in words.
Procedure: The affinity may be determined with a Scatchard analysis and quantitated as a dissociation constant, Kd.
Binding competition assays are performed using human recombinant IL-6 derived from Escherichia coli (Genetics Institute, Cambridge, Mass.). IL-6 is radioiodinated using the Bolton-Hunter reagent (New England Nuclear, Wilmington, Del.) as described by Faltynek, C. […] The specific activity of the radiolabelled IL-6 is 22 μC/μg. […] This medium is also used for making the dilutions of the IL-6 muteins and as the binding medium. The fetal bovine serum batches are routinely tested for IL-6 activity and only batches that show negligible IL-6 activity are used for competition binding assays. […]
Binding is performed by sealing the plates with acetate plate sealers (ICN Biomedicals, Costa Mesa, Calif.) and end-over rotation for 3 hours at 4° C. […] The cell pellets are washed once with 200 μl of ice-cold Ca^++ /Mg^+ free Hank's balanced salt solution (HBSS), resuspended in 200 μl of HBSS, transferred to scintillation vials and counted in a gamma counter.
The results of the Scatchard and competition binding assays are analyzed using a non-linear curve fitting program LIGAND. […] An apparent IC50 is calculated using the EBDA/LIGAND program.
The subject of assay [2] is human hepatoma cell line HEP3B2. Description: hepatocyte stimulation (fibrinogen induction) assay using human hepatoma cell line HEP3B2. The assay is classed as cell-based. The conditions noted are these: in vitro activity on a human hepatoma cell line; result in words. From the text:
The biological activity of wild-type IL-6 and IL-6 muteins can be measured by standard assays for measuring IL-6 activity, as is known in the art. For example, the in vitro biological activity of the IL-6 muteins of the invention may be compared with native IL-6 in a fibrinogen induction assay using a human hepatoma cell line, HEP3B2. When determined in such an assay and expressed as a percentage of activity of native, wild-type, IL-6, the activity of which is defined as 100%, the biological activity of the muteins of the present invention is at least 125%, preferably at least 150%. (See Example 3 and FIG. 6)
The hepatocyte stimulation assay using human hepatoma cell line HEP3B2 is carried out in duplicate serial dilutions of three or more independent preparations of each IL-6 mutein. The biological activity is determined from dose response curves prepared for each protein preparation. To minimize variation, a duplicate protein preparation of wild-type IL-6 is used in each 96-well tissue culture plate to calculate the activity of two (HEP3B2) IL-6 muteins on the same plate as a percentage of wild-type IL-6 activity. (See FIG. 6)
Cells from the human hepatoma cell line HEP3B2 are maintained in DMEM-H medium supplemented with 10% fetal bovine serum and penicillin/streptomycin. […] The OD405 is determined on a Vmax ELISA plate reader (Molecular Devices Corp., Palo Alto, Calif.). […]

Turning to “IL-6 mutein with Phenylalanine at position 171 of the native sequence (Phe^171) replaced by Leucine (Leu): mutein of human IL-6 with substitution of Phenylalanine by Leucine at position 171; SEQ. ID. NOS. 3 and 4”, in assay [1], the “receptor binding capacity compared to wild-type IL-6” value is on record as “increased receptor binding capacity”. Besides, the “biological activity compared to wild-type IL-6” value in assay [2] was “higher biological activity”.
